This note sets out measurements from PubChem BioAssay AID1996.

Structures are written as SMILES. ≈ marks a conversion by molar mass, not a printed value.

For this series the following is noted: buffer; pH 7.4; 200.0 µM.
For `CN(Cc1nc2ccccc2[nH]1)Cc1nc(CC2CC2)no1`, the kinetic solubility was above 44.6 µg/mL.

Take `O=C(CCc1c[nH]c2ccccc12)NCCc1ccc2c(c1)OCCO2`: the solubility (kinetic) worked out at 44.4 µg/mL (≈ 127 µM).

`O=S(=O)(NC1CCCCC1)c1cccs1` came in with a kinetic solubility of 28.7 µg/mL (≈ 117 µM).

`Cc1cccc(Nc2nc(-c3ccc(F)c(C)c3)cs2)n1` gave a kinetic solubility below 0.2 µg/mL.

Consider `COc1ccccc1CN(C)C(=O)COC(=O)c1cc(C)oc1C`, for which the kinetic solubility is above 49.7 µg/mL.

In turn, `Cn1c(Cl)c(/C=N/OC(=O)C(C)(C)C)c2ccccc21` came in with a solubility (kinetic) of 0.7 µg/mL (≈ 2.39 µM).

Regarding `CC(CC(=O)NCCc1ccc(F)cc1)c1ccccc1` (centres undefined), the solubility (kinetic) amounted to 39.3 µg/mL (≈ 138 µM).

Regarding `CSc1nsc(SC)c1NC(=O)Nc1ccccc1C`, the kinetic solubility stood at 1 µg/mL (≈ 3.07 µM).

`O=C(Nc1ccccc1C(=O)O)C1=NN=CC1` had a kinetic solubility above 34.7 µg/mL.

With `CCc1nc2sc3c(c2c(=S)[nH]1)CC(C)(C)OC3`, the solubility (kinetic) was determined as 1.9 µg/mL (≈ 6.78 µM).

Consider `COc1ccc(NC(=O)COC(=O)Cc2ccsc2)c(OC)c1`, for which the solubility (kinetic) was found to be 50.1 µg/mL (≈ 149 µM).

Turning to `CCc1cc(=O)[nH]c(SCc2cccnc2)n1`, the kinetic solubility is above 37.1 µg/mL.

Compound `CC(C)(C)C1CCc2onc(C(=O)O)c2C1` (centres undefined) returned a kinetic solubility above 33.5 µg/mL.

Compound `O=C(NCc1ccccc1Br)C1CCCO1` (centres undefined) yielded a kinetic solubility above 42.6 µg/mL.

`O=C(NCC1CCCO1)c1ccc(COc2ccccc2)cc1` (centres undefined) gave a kinetic solubility above 46.7 µg/mL.

`O=Cc1c(NCc2ccccc2)c2ccccc2[nH]c1=O` gave a kinetic solubility of 20.7 µg/mL (≈ 74.4 µM).

As for `Cc1ccsc1C(=O)OCC(=O)N1CCc2ccccc2C1`, the kinetic solubility was 34.6 µg/mL (≈ 110 µM).

With `Nc1cc(=O)n(Cc2ccccc2)c(=O)n1-c1ccc(F)cc1`, the kinetic solubility was above 46.7 µg/mL.

As to `COc1cc(C(=O)N2CCC(C(N)=O)CC2)ccc1OCc1c(C)noc1C`, the kinetic solubility was above 58.1 µg/mL.

Take `CC(=O)Nc1ccc(N2CCN(c3ccc(F)cc3)CC2)cc1`: the solubility (kinetic) was 0.7 µg/mL (≈ 2.23 µM).

`COc1ccc(Nc2nc(OC)nc(N3CCOCC3)n2)cc1` yielded a solubility (kinetic) of 21.8 µg/mL (≈ 68.7 µM).

With `Cc1ccc(-n2ccnc(SCC(=O)NC3CCCC3)c2=O)cc1Cl`, the solubility (kinetic) worked out at 3 µg/mL (≈ 7.94 µM).

In turn, `c1ccc2cc(CNCc3cccc4ccccc34)ccc2c1` displayed a kinetic solubility of 4.1 µg/mL (≈ 13.8 µM).

In turn, `Cc1ccc(Cn2c(N3CCN(C)CC3)nc3c2c(=O)[nH]c(=O)n3C)cc1` had a kinetic solubility above 55.3 µg/mL.

Compound `N#CC(CC(=O)c1ccc(F)cc1)c1ccc2c(c1)OCO2` (centres undefined) came in with a solubility (kinetic) of 1.2 µg/mL (≈ 4.04 µM).

`CC1CCCCN1Cc1cccnc1.O=C(O)C(=O)O` (centres undefined) came in with a kinetic solubility above 42 µg/mL.

On to `Clc1ccc2c(NCc3cccs3)ncnc2c1`, for which the kinetic solubility stood at 4.5 µg/mL (≈ 16.3 µM).

In the case of `Cc1cccc(C(=O)Nc2ccc(Oc3cnccn3)cc2)c1`, the solubility (kinetic) came to 5.6 µg/mL (≈ 18.3 µM).

`N/C(=N\OC(=O)Nc1ccccc1)c1ccno1` showed a kinetic solubility of 24.2 µg/mL (≈ 98.3 µM).

The compound `O=Cc1cccn1-c1ncc(Br)cn1` had a solubility (kinetic) of 30.6 µg/mL (≈ 121 µM).

As for `O=C(CCC(=O)c1ccc(Cl)s1)Nc1ncccc1O`, the solubility (kinetic) was above 46.6 µg/mL.

`CN(Cc1cccs1)C(=O)COC(=O)CNC(N)=O` came in with a kinetic solubility above 42.8 µg/mL.

Compound `Cc1noc(C)c1CN1C(=O)c2ccc([N+](=O)[O-])cc2C1=O` registered a kinetic solubility above 45.2 µg/mL.

`Cc1ccc(S(=O)(=O)N2CC(C)N(S(C)(=O)=O)C2)cc1` (centres undefined) showed a kinetic solubility above 47.8 µg/mL.

As to `COc1ccccc1C(=O)N/C(=N/c1nc(C)cc(C)n1)Nc1ccccc1`, the kinetic solubility is 1.1 µg/mL (≈ 2.93 µM).

`CN1CCN(c2nc(-c3ccccc3)ncc2S(C)(=O)=O)CC1` returned a solubility (kinetic) above 49.9 µg/mL.

`Cc1nc2nc(-c3cccs3)[nH]c2cc1Br` yielded a solubility (kinetic) of 3.8 µg/mL (≈ 12.9 µM).

On to `Cc1cc(C)c(C#N)c(SCc2ccc([N+](=O)[O-])cc2)n1`, for which the kinetic solubility was below 0.2 µg/mL.

`CC/C(=N\N1CCCCC1)c1c(O)[nH]c(=O)[nH]c1=O`: the kinetic solubility was above 39.9 µg/mL.

As for `Cc1cc(C)c(C)c(S(=O)(=O)N2CCC(C(=O)OCC(=O)NC3CCS(=O)(=O)C3)CC2)c1C` (centres undefined), the kinetic solubility is above 75.1 µg/mL.

As to `O=C1/C(=C/Nc2ccc3c(c2)OCO3)CCc2ccccc21`, the solubility (kinetic) is 1.4 µg/mL (≈ 4.77 µM).

As for `CC(C)(C)CC(C)(C)NC(=O)/C=C/C(=O)O`, the solubility (kinetic) is 29.1 µg/mL (≈ 128 µM).

For `CCSc1nnc(NC(=O)CN2C(=O)NC3(CCCC3)C2=O)s1`, the kinetic solubility is above 53.3 µg/mL.

On to `CCN(CC)CCn1c(-c2ccc(C)cc2)nc(=S)c2c1CC(C)(C)OC2`, for which the kinetic solubility is above 57.8 µg/mL.

With `CC1CCCC(NC(=O)c2ccc3c(c2)OCCO3)C1C` (centres undefined), the solubility (kinetic) is above 43.4 µg/mL.

Turning to `Cc1cc(C)c2oc(-c3cccc(N)c3)nc2c1`, the solubility (kinetic) was 3 µg/mL (≈ 12.6 µM).

Regarding `COc1ccc(Cl)cc1NC(=S)N1CC(C)OC(C)C1` (centres undefined), the kinetic solubility is above 47.2 µg/mL.

Consider `Cc1ccc(S(=O)(=O)Nc2cccc(Cl)c2)cc1NC(=O)C1CC1`, for which the kinetic solubility is above 54.7 µg/mL.

Compound `O=c1cnc2ccccc2n1Cc1ccc(Br)cc1` showed a kinetic solubility of 2.7 µg/mL (≈ 8.57 µM).

As for `COc1cccc(/C=C/c2ccc3cccc(O)c3n2)c1OC`, the kinetic solubility stood at 1.2 µg/mL (≈ 3.9 µM).

Consider `Cc1nc(C2COc3ccccc3O2)sc1C(=O)O` (centres undefined), for which the kinetic solubility was 35 µg/mL (≈ 126 µM).

Consider `COCCn1c(N)c(Sc2ccccc2)c(=O)[nH]c1=O`, for which the solubility (kinetic) was found to be 41.4 µg/mL (≈ 141 µM).

`Cc1noc(C)c1COc1ccc(C(=O)N2CCC(C(N)=O)CC2)cc1` returned a kinetic solubility above 53.6 µg/mL.

In the case of `COc1cccc(C(=O)NC2CCCc3ccccc32)c1` (centres undefined), the kinetic solubility is 7.8 µg/mL (≈ 27.7 µM).

Take `COc1ccc2c(c1)c1ncn(Cc3ccccn3)c(=O)c1n2C`: the solubility (kinetic) was 13.6 µg/mL (≈ 42.5 µM).

With `Cc1ccc2c(c1)Cc1nc3ccccc3nc1-2`, the solubility (kinetic) came to 1.9 µg/mL (≈ 8.18 µM).

`COc1ccnc2c1c(=O)n(Cc1ccc(Cl)cc1)c(=O)n2C`: the kinetic solubility turned out to be 9.3 µg/mL (≈ 28 µM).

For the compound `Cc1c(Cl)cccc1NC(=O)CNC(=O)C1CC(=O)N(C2CCCC2)C1` (centres undefined), the solubility (kinetic) was above 56.7 µg/mL.

The compound `NC(=O)CNC(=O)c1ccc(Cl)cc1` had a kinetic solubility above 31.9 µg/mL.

`COC(=O)Nc1sc2c(c1C(N)=O)CCC(C)C2` (centres undefined) returned a kinetic solubility of 5 µg/mL (≈ 18.6 µM).

`COc1ccc(CC(=O)NCC(C)(C)N2CCOCC2)cc1` had a solubility (kinetic) above 46 µg/mL.

`S=C(Nc1ccc(Cl)c(Cl)c1)N1CCN(c2ccccn2)CC1` came in with a solubility (kinetic) of 0.9 µg/mL (≈ 2.45 µM).

The compound `O=C(Nc1cccc(F)c1)N1CCN(C(=O)c2ccco2)CC1` registered a kinetic solubility above 47.6 µg/mL.

Regarding `COc1cccc(N(C(C)=O)C2=NCCCS2)c1`, the kinetic solubility is above 39.7 µg/mL.

`COC(=O)CC(c1ccc(C#N)cc1)n1c(C)ccc1C` (centres undefined) showed a kinetic solubility above 42.4 µg/mL.

The compound `O=C(O)/C=C/c1cnc2ccccc2n1` returned a solubility (kinetic) above 30 µg/mL.

`COc1ccccc1NS(=O)(=O)c1cccc(NS(=O)(=O)c2ccc(Cl)c(C(=O)O)c2)c1`: the kinetic solubility was above 74.5 µg/mL.

`COC(=O)c1sccc1NC(=O)c1ccccc1Br` gave a kinetic solubility of 2.3 µg/mL (≈ 6.76 µM).

With `CC(Sc1nc2c(c(=O)[nH]1)CCCC2)C(=O)Nc1ccccc1C#N` (centres undefined), the kinetic solubility came out at 46.1 µg/mL (≈ 130 µM).

Turning to `COc1ccc(NC(=O)CN2C(=O)C(=O)N(C3CCCC3)C2=O)c(OC)c1`, the kinetic solubility is above 56.3 µg/mL.

As to `CC(C)N(C(=S)Nc1ccc(S(=O)(=O)N2CCOCC2)cc1)c1ccccc1`, the kinetic solubility came to 7.1 µg/mL (≈ 16.9 µM).

Turning to `COc1ccc(NC(=O)c2ccc([N+](=O)[O-])o2)cc1`, the solubility (kinetic) was 23.4 µg/mL (≈ 89.2 µM).

The compound `COc1cccc(/C=C/C(=O)Nc2cccc(C(C)=O)c2)c1OC` showed a kinetic solubility of 4.3 µg/mL (≈ 13.2 µM).

Regarding `O=C(CCC(=O)c1cccs1)NCc1cccnc1`, the solubility (kinetic) was above 41.2 µg/mL.

Compound `COc1ccc(-c2noc(=O)n2Cc2ccc(C#N)cc2)cc1` had a kinetic solubility above 46.1 µg/mL.

The compound `CCc1ccc(-n2c([O-])c(C(C)=O)c(=O)[nH]c2=O)cc1.C[NH+](C)C` displayed a solubility (kinetic) of 38.5 µg/mL.

The compound `Fc1ccccc1N1CCN(CCCc2ccccc2)CC1` had a kinetic solubility of 19.6 µg/mL (≈ 65.7 µM).

`Cc1ccc(C(=O)NCCNC(=O)Cc2ccccc2)cn1` yielded a kinetic solubility above 44.6 µg/mL.

`CCc1ccccc1NC(=S)N(CCN(C)C)Cc1cccs1` gave a kinetic solubility of 45.6 µg/mL (≈ 131 µM).

`CSc1ncc(C(=O)Nc2ccc(Br)cn2)c(C)n1`: the solubility (kinetic) worked out at 47 µg/mL (≈ 139 µM).

`O=C(CN1C(=O)NC2(CCCC2)C1=O)NCc1ccco1` displayed a kinetic solubility above 43.7 µg/mL.

Turning to `Cc1cccc(C(=O)Nc2cc(NC(=O)c3cccs3)ccc2C)c1`, the solubility (kinetic) was found to be 2 µg/mL (≈ 5.71 µM).

`COc1ccc(S(=O)(=O)NCc2cccnc2)cc1` gave a kinetic solubility above 41.7 µg/mL.

With `CCOC(=O)COc1nc(-c2ccco2)cc(-c2ccco2)c1C#N`, the kinetic solubility is 2.8 µg/mL (≈ 8.28 µM).

In turn, `COc1ccc(C(=O)Nc2ccc(NC(=O)C(C)C)nc2)cc1` gave a kinetic solubility of 3.1 µg/mL (≈ 9.89 µM).

Regarding `NC(=O)c1ccccc1NC(=O)c1ccc2c(c1)OCO2`, the solubility (kinetic) was found to be 3.1 µg/mL (≈ 10.9 µM).

Take `O=C(Cc1ccccc1)NN1CCCCC1`: the solubility (kinetic) is above 32.7 µg/mL.

As to `COCCNC(=O)C(=O)Nc1cc2c3c(c1)C(C)C(=O)N3CCC2` (centres undefined), the solubility (kinetic) turned out to be 48.7 µg/mL (≈ 147 µM).

In the case of `COc1ccc(CCNC(=O)C2CC(=O)N(c3ccc(C)cc3)C2)cc1` (centres undefined), the solubility (kinetic) stood at 2.5 µg/mL (≈ 7.09 µM).

Consider `CCc1ccc(NC(=S)Nc2ccc3[nH]c(=O)[nH]c3c2)cc1`, for which the solubility (kinetic) was found to be 13.5 µg/mL (≈ 43.2 µM).

Turning to `Cc1ccc(Cn2c(=S)[nH]c3ccccc3c2=O)cc1`, the solubility (kinetic) was below 0.3 µg/mL.

`CCOC(=O)c1sc(=S)n(-c2ccc(C)cc2)c1N` displayed a kinetic solubility of 1.4 µg/mL (≈ 4.76 µM).

The compound `O=[N+]([O-])c1ccccc1S(=O)(=O)Nc1cccnc1` displayed a solubility (kinetic) above 41.9 µg/mL.

In the case of `O=C(NC(=S)Nc1ccc2oc(=O)ccc2c1)c1ccco1`, the solubility (kinetic) came to 2.8 µg/mL (≈ 8.91 µM).

`CCCCN(Cc1cc2cc(C)ccc2[nH]c1=O)C(=O)c1ccccn1` returned a solubility (kinetic) above 52.4 µg/mL.

For the compound `OCCCNC(=S)Nc1ccc(Br)cc1Cl`, the solubility (kinetic) was above 48.5 µg/mL.

Compound `Cc1ccc(NC(=O)C2COc3ccccc3O2)c(C)c1` (centres undefined) displayed a kinetic solubility of 33 µg/mL (≈ 116 µM).

With `O=C(COC(=O)COc1ccccc1F)NCc1ccco1`, the kinetic solubility was above 46.1 µg/mL.

The compound `CCc1noc(C)c1C(=O)Nc1cccc2ncccc12` gave a kinetic solubility above 42.2 µg/mL.

With `Cc1ccc(C)c(NC(=O)C(CC(=O)O)C2CCCO2)c1` (centres undefined), the solubility (kinetic) turned out to be 40.1 µg/mL (≈ 138 µM).

`COc1cccc(N2CCN(C(=O)c3ccc(-c4ccccc4)cc3)CC2)c1` gave a solubility (kinetic) of 0.8 µg/mL (≈ 2.15 µM).

Take `c1ccc2[nH]c(SN3CCOCC3)nc2c1`: the solubility (kinetic) is 10.8 µg/mL (≈ 45.9 µM).

In the case of `CN(C)c1ccc(NC(=O)COC(=O)c2ccc3c(c2)OCO3)cc1`, the solubility (kinetic) is 10.8 µg/mL (≈ 31.5 µM).

As for `Cn1c(=O)c(C(=O)NC2CCCCCC2)c(O)c2ccccc21`, the solubility (kinetic) was below 0.3 µg/mL.
